IC50 and Ki data for 60 compounds are collected here from ChEMBL document CHEMBL6083192, “Discovery of 1,2,4-Triazole-3-thione Derivatives as Potent and Selective DCN1 Inhibitors for Pathological Cardiac Fibrosis and Remodeling” (J Med Chem, 2024).

Data set [1] addresses DCN1-like protein 1/NEDD8-conjugating enzyme Ubc12 (Homo sapiens, UniProt Q96GG9). Kind of data set: Inhibition of GST-tagged DCN1 (unknown origin)/acetylated-biotin tagged UBC12 (unknown origin) protein-protein interaction incubated for 30 mins by HTRF assay. For orientation: Time-resolved FRET reads energy transfer from a long-lived donor to a nearby acceptor.
Data set [2] is described as follows: Hepatotoxicity in human L02 cells assessed as reduction in cell viability by MTT assay. A general note: Formazan colour is commonly taken as a measure of viable cells.
The nature of data set [3]: Inhibition of GST-tagged DCN3 (unknown origin)/acetylated-biotin tagged UBC12 (unknown origin) protein-protein interaction assessed as inhibition constant incubated for 30 mins by HTRF assay.
A short description of data set [4]: Inhibition of GST-tagged DCN2 (unknown origin)/acetylated-biotin tagged UBC12 (unknown origin) protein-protein interaction assessed as inhibition constant incubated for 30 mins by HTRF assay.
Data set [5] is described as follows: Inhibition of GST-tagged DCN5 (unknown origin)/acetylated-biotin tagged UBC12 (unknown origin) protein-protein interaction assessed as inhibition constant incubated for 30 mins by HTRF assay.
Data set [6] in a line: Inhibition of GST-tagged DCN4 (unknown origin)/acetylated-biotin tagged UBC12 (unknown origin) protein-protein interaction assessed as inhibition constant incubated for 30 mins by HTRF assay.
In a further data set the target is DCN1-like protein 1 (Homo sapiens, UniProt Q96GG9). Kind of data set: Inhibition of DCN1 (unknown origin) assessed as inhibition constant.
Chain of DCN1-like protein 1 (Q96GG9 whole entry): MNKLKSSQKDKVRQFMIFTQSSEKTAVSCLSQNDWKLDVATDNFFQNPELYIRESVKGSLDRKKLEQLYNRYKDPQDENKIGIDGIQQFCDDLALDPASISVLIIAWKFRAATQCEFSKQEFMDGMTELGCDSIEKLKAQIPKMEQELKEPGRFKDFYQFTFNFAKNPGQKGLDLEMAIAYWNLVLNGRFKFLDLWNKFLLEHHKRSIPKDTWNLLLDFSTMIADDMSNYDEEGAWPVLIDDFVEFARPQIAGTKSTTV

Chain of DCN1-like protein 1/NEDD8-conjugating enzyme Ubc12 (Q96GG9 whole entry): as above
Chain of DCN1-like protein 1/NEDD8-conjugating enzyme Ubc12 (P61081 whole entry, further chain): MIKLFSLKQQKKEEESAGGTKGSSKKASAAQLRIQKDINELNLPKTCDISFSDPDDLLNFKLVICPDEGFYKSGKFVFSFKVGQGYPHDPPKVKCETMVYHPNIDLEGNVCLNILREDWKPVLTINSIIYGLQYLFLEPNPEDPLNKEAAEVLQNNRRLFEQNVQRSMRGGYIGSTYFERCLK

As to `O=C(CCn1c(-c2ccccc2)n[nH]c1=S)Nc1cccc(C(F)(F)F)c1`, the figures for the IC50 in data set [1] and in data set [2] were 15.3 nM and greater than 100 µg/mL, respectively. Consider `O=C(CCn1c(-c2ccc(Br)cc2)n[nH]c1=S)Nc1cccc(C(F)(F)F)c1`, for which it took 24.9 nM to reach half-maximal inhibition in data set [1] (IC50).

Turning to `O=C(CCn1c(SCC(=O)Nc2ccccc2)nnc1-c1ccc(Cl)cc1)Nc1cccc(C(F)(F)F)c1`, the IC50 (in general, the midpoint of a concentration-inhibition curve) in data set [1] was greater than 20000 nM. In the case of `CC(C)(C)c1ccc(NC(=O)CCn2c(-c3ccc(Cl)cc3)n[nH]c2=S)cc1`, the IC50 was 8.77 nM in data set [1] and greater than 100 µg/mL in data set [2]. With `O=C(CCn1c(-c2ccc(F)cc2)n[nH]c1=S)Nc1cccc(C(F)(F)F)c1`, the IC50 was 18.9 nM in data set [1] and greater than 100 µg/mL in data set [2].

`N#Cc1cc(NC(=O)CCn2c(-c3ccc(Cl)cc3)n[nH]c2=S)n[nH]1` registered a concentration for half-maximal inhibition (IC50) in data set [1] greater than 20000 nM. Same read-out and setting: the value for `COc1ccc(-c2n[nH]c(=S)n2CCC(=O)Nc2cc(-c3ccccc3)ccc2O)cc1` was 1110 nM. Turning to `COc1ccc(-c2n[nH]c(=S)n2CCC(=O)Nc2cccc(C(F)(F)F)c2)cc1`, the IC50 in data set [1] is 14.1 nM; in data set [2] it was greater than 100 µg/mL.

In data set [1], `O=C(CCn1c(-c2ccc(Cl)cc2Br)n[nH]c1=S)Nc1cccc(C(F)(F)F)c1` yielded an IC50 of 5.41 nM. In turn, `C#CCNC(=O)CCn1c(-c2ccc(Cl)cc2)n[nH]c1=S` displayed an IC50 in data set [1] greater than 20000 nM. As for `O=C(CCn1c(-c2ccc(O)cc2)n[nH]c1=S)Nc1ccc(C(F)(F)F)cc1`, the results for the IC50 in data set [1] and in data set [2] were 10.6 nM and greater than 100 µg/mL, respectively. As to `COc1ccc(CNC(=O)CCn2c(-c3ccc(OC)cc3)n[nH]c2=S)cc1`, the IC50 in data set [1] is greater than 20000 nM.

For the compound `C#CCSc1nc(Sc2nccs2)c(C#N)c(-c2ccc(C)cc2)n1`, the Ki (as a rule, the equilibrium dissociation constant of an inhibitor or competing ligand from its target) in data set [3] worked out at 592 nM; in data set [4] it was 66.2 nM; in data set [5], 2140 nM; in data set [6] it was 810 nM. As to `C#CCNC(=O)CCn1c(-c2ccc(OC)cc2)n[nH]c1=S`, the IC50 in data set [1] is greater than 20000 nM.

With `COc1ccc(-c2n[nH]c(=S)n2CCC(=O)Nc2cc(C(C)(C)C)ccc2O)cc1`, in data set [1], the IC50 came out at 2320 nM. In data set [1], `CC(C)(C)c1ccc(-c2n[nH]c(=S)n2CCC(=O)Nc2cccc(C(F)(F)F)c2)cc1` had an IC50 of 7.85 nM. The same measure, in the same setting: the value for `COc1ccc(CSc2nnc(-c3ccc(Cl)cc3)n2CCC(=O)Nc2cccc(C(F)(F)F)c2)cc1` was 4110 nM; that for `COc1ccc(-c2n[nH]c(=S)n2CCC(=O)NCc2ccoc2)cc1` was greater than 20000 nM.

With `CC(C)c1cccc(NC(=O)CCn2c(-c3ccc(Cl)cc3)n[nH]c2=S)c1`, the IC50 in data set [1] was 15.7 nM; in data set [2], greater than 100 µg/mL. Consider `O=C(CCn1c(-c2ccc(Cl)cc2)n[nH]c1=S)Nc1ccccc1`, for which it took 545 nM to reach half-maximal inhibition in data set [1] (IC50). Still for that read-out and setting: the value for `Cc1ccc(NC(=O)CCn2c(-c3ccc(Cl)cc3)n[nH]c2=S)cc1` was 50.5 nM; that for `COc1ccc(NC(=O)CCn2c(-c3ccc(Cl)cc3)n[nH]c2=S)cc1` was 90.9 nM. The same measure, in the same setting: then `COc1ccc(CNC(=O)CCn2c(-c3ccc(Cl)cc3)n[nH]c2=S)cc1`, with greater than 20000 nM. As for `CCCCc1ccc(NC(=O)CCn2c(-c3ccc(Cl)cc3)n[nH]c2=S)cc1`, the values for the IC50 in data set [1] and in data set [2] were 12.3 nM and greater than 100 µg/mL, respectively.

On to `CCSc1nnc(-c2ccc(Cl)cc2)n1CCC(=O)Nc1cccc(C(F)(F)F)c1`, for which the IC50 in data set [1] worked out at 2200 nM. As to `O=C(CCn1c(-c2ccc(O)cc2)n[nH]c1=S)Nc1ccccc1C(F)(F)F`, 100 nM corresponded to half-maximal inhibition in data set [1] (IC50).

`O=C(CCn1c(-c2ccncc2)n[nH]c1=S)Nc1cccc(C(F)(F)F)c1` gave an IC50 in data set [1] of 221 nM. On the same count and under the same terms, the value for `CC(C)(C)c1ccc(O)c(NC(=O)CCn2c(-c3ccc(Cl)cc3)n[nH]c2=S)c1` was 195 nM; that for `O=C(CCn1c(-c2ccc(Cl)cc2)n[nH]c1=S)Nc1ccc(Cl)cc1` was 69.4 nM. Same read-out and setting: the value for `O=C(CCn1c(-c2ccc(Cl)cc2)n[nH]c1=S)Nc1cccc(Br)c1` was 22.2 nM. In the case of `C=C(CN(C)C)C(=O)NC[C@@H](NC(=O)[C@H](Cc1nc2ccc(C(C)C)cc2s1)NC(=O)CC)C1CCCCC1`, the Ki on DCN1-like protein 1 is less than 1 nM. For the compound `COc1cccc(NC(=O)CCn2c(-c3ccc(Cl)cc3)n[nH]c2=S)c1`, in data set [1], the IC50 turned out to be 77.6 nM. `O=C(CCn1c(-c2ccc(Cl)cc2)n[nH]c1=S)NCc1ccoc1` registered a half-maximal inhibitory concentration (IC50) in data set [1] greater than 20000 nM. Consider `COc1cc(-c2nc(SCc3ccc(Cl)cc3)nc(Sc3nnnn3C)c2C#N)cc(OC)c1OC`, for which the Ki in data set [3] was 385 nM; in data set [4] it was 18.8 nM; in data set [5], greater than 20000 nM; in data set [6], greater than 20000 nM. On to `O=C(CCn1c(-c2c[nH]c3ccccc23)n[nH]c1=S)Nc1cccc(C(F)(F)F)c1`, for which the IC50 in data set [1] was 9.39 nM; in data set [2], greater than 100 µg/mL.

Regarding `COc1ccc(-c2n[nH]c(=S)n2CCC(=O)Nc2ccc(OC)cc2OC)cc1`, in data set [1], the midpoint of inhibition, the IC50, lay at 840 nM. Same read-out and setting: the value for `O=C(CCn1cnnc1-c1ccc(Cl)cc1)Nc1cccc(C(F)(F)F)c1` was 15800 nM.

Compound `Cc1ccc(O)c(NC(=O)CCn2c(-c3ccc(Cl)cc3)n[nH]c2=S)c1` came in with an IC50 in data set [1] of 650 nM. In data set [1], `O=C(CCn1c(-c2ccc(Cl)cc2)n[nH]c1=S)NCCc1c[nH]c2ccccc12` came in with an IC50 of 2170 nM. On the same count and under the same terms, the value for `Cc1cccc2[nH]c(CSc3nnc(-c4ccc(Cl)cc4)n3CCC(=O)Nc3cccc(C(F)(F)F)c3)nc12` was 7110 nM; that for `COc1ccc(-c2n[nH]c(=S)n2CCC(=O)NCCc2c[nH]c3ccccc23)cc1` was 2280 nM. As for `CC(C)c1ccc(NC(=O)CCn2c(-c3ccc(Cl)cc3)n[nH]c2=S)cc1`, the results for the IC50 in data set [1] and in data set [2] were 12.8 nM and greater than 100 µg/mL, respectively. With `O=C(Cn1c(-c2ccc(Cl)cc2)n[nH]c1=S)Nc1cccc(C(F)(F)F)c1`, in data set [1], the IC50 was determined as 27.4 nM. Same read-out and setting: the value for `COc1ccccc1NC(=O)CCn1c(-c2ccc(Cl)cc2)n[nH]c1=S` was 884 nM; that for `COc1ccc(-c2n[nH]c(=S)n2CCC(=O)Nc2cc(C#N)[nH]n2)cc1` was greater than 20000 nM. The same measure, in the same setting: the value for `O=C(CCn1c(-c2ccc(Cl)cc2)n[nH]c1=S)Nc1ccc(F)cc1` was 130 nM; that for `O=C(CCn1c(-c2ccc(Cl)cc2)n[nH]c1=S)Nc1ccc(O)cc1` was greater than 20000 nM.

In the case of `Cc1ccc(-c2n[nH]c(=S)n2CCC(=O)Nc2cccc(C(F)(F)F)c2)cc1`, the IC50 was 9.42 nM in data set [1] and greater than 100 µg/mL in data set [2]. On to `O=C(CSc1nnc(-c2ccc(Cl)cc2)n1CCC(=O)Nc1cccc(C(F)(F)F)c1)NC(=O)Nc1ccccc1`, for which the IC50 in data set [1] is greater than 20000 nM. On the same count and under the same terms, the value for `O=C(CCn1c(-c2ccccc2Cl)n[nH]c1=S)Nc1cccc(C(F)(F)F)c1` was 28.8 nM; that for `O=C(CCn1c(-c2ccc(O)cc2)n[nH]c1=S)NCc1cccc(C(F)(F)F)c1` was 43.1 nM; that for `COc1ccc(-c2n[nH]c(=S)n2CCC(=O)Nc2ccc(Br)cc2O)cc1` was 209 nM. Still for that read-out and setting: the value for `O=C(CCn1c(-c2ccc(Cl)cc2)n[nH]c1=O)Nc1cccc(C(F)(F)F)c1` was 7580 nM. For `O=C(CCn1c(-c2cccc(Cl)c2)n[nH]c1=S)Nc1cccc(C(F)(F)F)c1`, the IC50 in data set [1] was 19.9 nM; in data set [2], greater than 100 µg/mL. `COc1ccc(-c2n[nH]c(=S)n2CCC(=O)Nc2cc(C)ccc2O)cc1`: half-maximal inhibition in data set [1] (IC50) was put at 1460 nM. `O=C(CCn1c(-c2ccc([N+](=O)[O-])cc2)n[nH]c1=S)Nc1cccc(C(F)(F)F)c1` yielded an IC50 in data set [1] of 46.2 nM. Same read-out and setting: then `O=C(CCCn1c(-c2ccc(Cl)cc2)n[nH]c1=S)Nc1cccc(C(F)(F)F)c1`, with 45.2 nM; and `CSc1nnc(-c2ccc(Cl)cc2)n1CCC(=O)Nc1cccc(C(F)(F)F)c1`, with 1630 nM. `O=C(CCn1c(-c2ccc(Cl)cc2)n[nH]c1=S)Nc1ccc(Br)cc1` yielded an IC50 in data set [1] of 25.6 nM. Still for that read-out and setting: the value for `O=C(CCn1c(-c2ccc(Cl)cc2)n[nH]c1=S)Nc1cc(-c2ccccc2)ccc1O` was 330 nM.
